Earlier results in patent US20220211847A1, “COMBINATION OF MONALIZUMAB, DURVALUMAB, CHEMOTHERAPY AND BEVACIZUMAB OR CETUXIMAB FOR THE TREATMENT OF COLORECTAL CANCER” (MEDIMMUNE LIMITED, priority 2019, published 2022).
Like-named read-outs stand apart in the source and are kept apart here.

Key:
CRC = details: similar population
[1] = test system: unresectable metastatic disease (mCRC); details: added to oxaliplatin-based regimens
[2] = test system: microsatellite instability-high CRC or mismatch repair deficient CRC; details: monotherapy; MSI-high or mismatch repair deficient CRC
[3] = test system: MSI high CRCs and MSS CRCs

Compound: CNC(=O)c1cc(Oc2ccc(NC(=O)Nc3ccc(Cl)c(C(F)(F)F)c3)c(F)c2)ccn1 [regorafenib]
- median OS (CRC): 6.4 months

Compound: bevacizumab: recombinant humanized monoclonal antibody directed against human vascular endothelial growth factor (VEGF)
- increase in Progression-free survival (PFS) compared with regimens without bevacizumab [1]: 1.4 months
- difference in Overall Survival (OS) ([1]; not statistically significant): 1.4 months

Compound: nivolumab
- ORR [2]: 28%

Compound: pembrolizumab: humanized monoclonal IgG4 antibody directed against human cell surface receptor PD-1
- objective response rate (ORR) ([3]; 10 mg/kg Q2W, microsatellite proficient CRC): 0%
- immune-related objective response rate ([3]; MSI high CRCs): 40%
- immune-related progression free survival rate ([3]; MSI high CRCs): 78%
- patients who experienced disease progression ([3]; MSI-H CRC): 1 of 10
- patients who experienced disease progression ([3]; MSS CRC): 11/18
- immune-related objective response rate ([3]; MSS CRCs): 0%
- immune-related progression free survival rate ([3]; MSS CRCs): 11%
